Data published in ChEMBL document CHEMBL2034833, “Synthesis of chalcone-amidobenzothiazole conjugates as antimitotic and apoptotic inducing agents” (Bioorg Med Chem, 2012).
The source made the active and inactive calls. The calls are words filed in the database; no cut-off is given here.

Tests used:
ACHN = assay: Cytotoxicity against human ACHN cells after 48 hrs by MTT assay; assay type: functional, cell-based
A-375 = assay: Cytotoxicity against human A375 cells after 48 hrs by MTT assay; assay type: functional, cell-based; conditions: A-375, 48 h
HT-29 = assay: Cytotoxicity against human HT-29 cells after 48 hrs by MTT assay; assay type: functional, cell-based; conditions: HT-29, 48 h, read-out: IC50
A549 = assay: cells; conditions: Homo sapiens, A549, 48 h
Description: Cytotoxicity against human A549 cells after 48 hrs by MTT assay

MCF7 = assay: cells; conditions: Homo sapiens, MCF7, 48 h
Description: Cytotoxicity against human MCF7 cells after 48 hrs by MTT assay

Tubulin (Homo sapiens) = Tubulin (Homo sapiens) (UniProt P68371+Q9H4B7+P0DPH7+P68366+Q13509+Q71U36+P04350+Q3ZCM7+P07437+P68363+Q9BQE3+Q6PEY2+Q13885+Q9BVA1+Q9BUF5); assay: Inhibition of tubulin polymerization in human A549 cells assessed as disrupted microtubule organization at 2 uM after 48 hrs by immunohistochemistry analysis; assay type: cell-based

Row | IC50 (A549) [µM] | IC50 (MCF7) [µM] | inhibition (Tubulin (Homo sapiens)) | SMILES | IC50 (ACHN) [µM] | IC50 (A-375) [µM] | IC50 (HT-29) [µM]
1 | 5.1 | 2.5 |  | COc1ccc(/C=C/C(=O)c2cc(OC)c(OC)c(OC)c2)cc1OCC(=O)Nc1nc2c(C)cccc2s1 | 3.8 | 2.8 | 6.1
2 |  |  | Active | COc1ccc(/C=C/C(=O)c2cc(OC)c(OC)c(OC)c2)cc1OCC(=O)Nc1nc2ccccc2s1 |  |  | 
